Source: paper PMC8150775, “Repositioning Azelnidipine as a Dual Inhibitor Targeting CD47/SIRPα and TIGIT/PVR Pathways for Cancer Immuno-Therapy” (Biomolecules, 2021)

Columns and labels:
[1] = target: T1, human TIGIT/PVR (Homo sapiens, UniProt P15151); assay: Blocking assay, human PVR protein binding to CHOK1-hTIGIT cells; settings: concentration gradient; read-out: IC50, blocking human TIGIT/PVR (hPVR binding)
T1 construct: purchased ACRO Biosystem CD5-H82F6; host or cells: soluble protein purchased; TIGIT on CHOK1-hTIGIT cells (lenti-viral transfection)
T1 sequence (P15151 21-343 limits assumed): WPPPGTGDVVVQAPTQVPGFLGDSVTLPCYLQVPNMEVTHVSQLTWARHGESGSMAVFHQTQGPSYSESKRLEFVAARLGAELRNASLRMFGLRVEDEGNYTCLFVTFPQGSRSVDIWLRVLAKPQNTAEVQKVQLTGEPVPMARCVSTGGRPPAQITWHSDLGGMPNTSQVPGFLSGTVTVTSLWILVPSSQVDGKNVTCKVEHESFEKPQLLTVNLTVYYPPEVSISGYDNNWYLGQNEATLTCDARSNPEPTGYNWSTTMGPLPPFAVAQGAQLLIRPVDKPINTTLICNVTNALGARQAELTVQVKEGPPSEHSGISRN
Procedure: The abilities of small molecule inhibitors (SMIs) (purchased from TargetMol, Shanghai, China) to block the binding of SIRPα protein to CHOK1-CD47 cells or PVR protein to CHOK1-TIGIT cells were determined by flow cytometry, as previously reported. The SMIs at indicated concentrations were incubated with Fc-tagged SIRPα or PVR protein for 30 min at 4°C, followed by incubating with the indicated cells for another 30 min. Human SIRPα protein (SIA-H5251, ACRO Biosystem, Beijing, China), mouse SIRPα protein (SIA-M5258, ACRO Biosystem, Beijing, China), human PVR protein (CD5-H82F6, ACRO Biosystem, Beijing, China), and mouse PVR protein (50259-M03H, Sino Biological, Beijing, China) were used. PE-conjugated anti-human IgG antibody was used to detect the Fc protein bind to cells. Cells incubated with the Fc proteins and anti-human IgG antibody without the SMIs serve as the positive control. The mean fluorescent intensity (MFI) of each sample was detected and recorded by a flow cytometry. The blocking efficacy of the SMIs was calculated as the equation: (MFI of the positive control-MFI of the SMI)/MFI of the positive control × 100%.

[2] = tested on: MC38 tumors; assay: MC38 tumor model, alone or combined with radiotherapy, with ex vivo analysis; type: in vivo, C57BL/6 mice
Procedure: BABL/c mice were subcutaneously (s.c.) injected with 2 × 10^5 CT26 cells on the right back, and C57BL/6 mice were injected with 1 × 10^6 MC38 cells. One week later, tumor-bearing mice were randomized into indicated groups, and intraperitoneal (i.p.) injected with azelnidipine or normal saline every day for two weeks. Tumor volumes were measured every other day by the (a) length, (b) width, and (c) height and calculated as volume (V) = a × b × c/2. For the combinational model of azelnidipine and radiotherapy (RT), MC38 tumor-bearing mice received irradiation (IR) when the tumors reached 80–100 mm^3. The mice received one dose of 20 Gy irradiation at the tumor local site, and followed by the treatment of azelnidipine.
Tumor-bearing mice were sacrificed at the end of the treatment. The tumors were dissected and digested into single cell with an enzyme cocktail of 100 U/mL collagenase IV; and Dnase I. The infiltration of CD8^+ T cells at the tumor site was detected by flow cytometry by staining of anti-mouse CD45, anti-mouse CD3, anti-mouse CD8α or isotype control. The MDSCs at the tumor site were analyzed by staining of anti-mouse CD45, anti-mouse CD11b, anti-mouse Ly6C, and anti-mouse Ly6G. […] The frequency of IFN-γ secreting CD8^+ T cells were counted according to the fluorescence minus one (FMO) control with the isotype control of IFN-γ antibody. […]

[3] = tested on: THP-1 macrophages; set-up: method as in PMID 29398679, PMID 20606305; settings: cited from earlier work

In the case of CC1=C(C(=O)OC(C)C)C(c2cccc([N+](=O)[O-])c2)C(C(=O)OC2CN(C(c3ccccc3)c3ccccc3)C2)=C(N)N1 (stereo not shown) [Azelnidipine], the IC50 [1] is reported as ~28 µM, the “growth of MC38 tumors, combination with IR” value ([2]; 5 mg/kg i.p. each day combined with 20 Gy local IR) is reported as “remarkably suppress tumor growth” and the “growth of MC38 tumors” value ([2]; 2 and 5 mg/kg i.p. each day for 2 weeks, alone) is reported as “significantly restrict”. For the same compound, the “differentiation and activation of THP-1 macrophages” value [3] was “inhibit the differentiation and activation”.
